{
  "source": "ChEMBL document CHEMBL1201862",
  "about": "“PubChem BioAssay data set” (2004)",
  "key": {"[1]": {"experiment": "OVCAR-3 cell viability loss – plate reader, dry powder samples, PAX8 inhibitor project, dose response (AID 743044)", "format": "functional, cell-based"}, "[2]": {"experiment": "A2780 cell killing – plate reader, dry powder samples, cytotoxicity control, dose response (AID 743046)", "format": "functional, cell-based"}, "[3]": {"experiment": "general cell-killing toxicity readout – plate reader, dry powder samples, cytotoxicity control for PAX8 inhibitor project, dose response (AID 743021)", "format": "functional, cell-based"}, "[4]": {"experiment": "IGROV1 cell killing – plate reader, dry powder samples, PAX8 inhibitor project, dose response (AID 743043)", "format": "functional, cell-based", "details": "IGROV-1"}, "[5]": {"biological_target": "Paired box protein Pax-8 (Homo sapiens, UniProt Q06710)", "sequence (Q06710 whole entry)": "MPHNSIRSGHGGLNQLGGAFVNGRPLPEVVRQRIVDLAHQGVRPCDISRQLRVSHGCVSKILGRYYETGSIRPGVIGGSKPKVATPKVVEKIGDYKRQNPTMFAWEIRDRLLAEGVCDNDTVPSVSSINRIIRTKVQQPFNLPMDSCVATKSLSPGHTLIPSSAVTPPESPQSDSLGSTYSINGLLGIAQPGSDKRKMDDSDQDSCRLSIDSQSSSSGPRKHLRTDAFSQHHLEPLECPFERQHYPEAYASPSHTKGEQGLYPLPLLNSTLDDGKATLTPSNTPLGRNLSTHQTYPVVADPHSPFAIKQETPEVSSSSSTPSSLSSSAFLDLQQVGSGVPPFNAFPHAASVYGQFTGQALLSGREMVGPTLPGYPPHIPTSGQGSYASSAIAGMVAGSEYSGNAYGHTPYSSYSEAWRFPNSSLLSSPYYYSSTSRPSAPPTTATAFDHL", "experiment": "PAX8 transcriptional activity inhibition in RMG-I – RMG-I cells, luciferase, cherry-pick, dose response (AID 687027);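 further: luciferase reporter driven by Pax8 target thyroperoxidase promoter measured by SteadyGlo luminescence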", "format": "functional, cell-based"}, "[6]": {"experiment": "OVCAR8 cell viability loss – plate reader, dry powder samples, PAX8 project, dose response (AID 743197)", "format": "functional, cell-based", "details": "OVCAR-8"}, "[7]": {"experiment": "Late stage assay provider results from the probe development effort to identify inhibitors of the Plasmodium falciparum M18 Aspartyl Aminopeptidase (M18AAP): radiolabel-based cell-based dose response assay to identify compounds that inhibit P. falciparum growth in RBCs, Set 2..", "format": "functional"}, "[8]": {"experiment": "Trypanosoma cruzi growth suppression in host cells – NIH3T3 host cells, beta-gal luminescence, confirmation (AID 2044);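 further: luminescent beta-galactosidase reporter signal from transgenic T. cruzi replicating inside host cells; inhibitors lower the luminescence signal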", "format": "functional, cell-based"}, "[9]": {"experiment": "NIH3T3 cell viability loss – ATP luminescence, mouse fibroblasts, counter-screen, dose response (AID 2010);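 further: cells exposed to compound for about 90 hours before reading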", "format": "functional, cell-based"}, "[10]": {"biological_target": "T1, NAD-dependent protein deacylase sirtuin-5, mitochondrial (Homo sapiens, UniProt Q9NXA8)", "T1 sequence (Q9NXA8 whole entry)": "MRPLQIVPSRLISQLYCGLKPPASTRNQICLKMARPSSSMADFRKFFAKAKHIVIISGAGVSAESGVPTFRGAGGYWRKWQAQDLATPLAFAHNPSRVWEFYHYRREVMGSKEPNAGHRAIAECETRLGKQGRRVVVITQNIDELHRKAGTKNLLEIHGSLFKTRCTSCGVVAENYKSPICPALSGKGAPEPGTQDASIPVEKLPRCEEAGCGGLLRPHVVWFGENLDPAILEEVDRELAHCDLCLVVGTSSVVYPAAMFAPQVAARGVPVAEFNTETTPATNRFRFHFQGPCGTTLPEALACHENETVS", "experiment": "sirtuin-5 deacylation blockers, concentration series – biochemical, fluorescence imaging, cherry-pick, set 5, dose response (AID 720591);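 further: desuccinylation of succinyl peptide AMC substrate read as fluorescence after trypsin release; potency of inhibitors that lower fluorescence and may act on trypsin instead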"}, "[11]": {"biological_target": "T1, NAD-dependent protein deacylase sirtuin-5, mitochondrial", "experiment": "blockers of sirtuin-5 peptide desuccinylation – biochemical, fluorescence imaging, cherry-pick, set 6, dose response (AID 720597)"}, "[12]": {"experiment": "growth inhibition of PfATP4-mutant resistant parasites – NITD609-resistant line, SYBR Green, dry powder, dose response (AID 1159571);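 further: parasites synchronized at ring stage by sorbitol before testing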", "format": "functional, cell-based"}, "[13]": {"experiment": "toxicity to human HepG2 hepatoma cells – cell-based, plate reader, dry powder samples, cytotoxicity control, dose response (AID 1159569);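 further: inhibitor potency with signal falling toward the positive control level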", "format": "functional"}, "[14]": {"experiment": "Dd2 malaria parasite growth inhibition potency – SYBR Green, dry powder samples, dose response (AID 1159566);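 further: potency for growth inhibition with lower SYBR green DNA signal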", "format": "functional, cell-based"}, "[15]": {"experiment": "P. falciparum Dd2 growth inhibitors, dose response, SYBR Green, cherry-picked samples (AID 1159567)", "format": "functional, cell-based"}, "[16]": {"experiment": "growth inhibition of yeast DHODH-expressing 3D7 parasites – SYBR Green, dry powder samples, dose response (AID 1159570);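 further: parasite growth measured after 72 hours of compound exposure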", "format": "functional, cell-based"}, "[17]": {"experiment": "IC50 of Artemis nuclease activity blockers – biochemical, fluorescence intensity, dose response (AID 720701);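 further: Artemis endonuclease enzyme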", "format": "functional"}, "[18]": {"experiment": "viability loss of HPDE-C7K cells – cell-based, fluorescence, HTS, primary screen (AID 431)", "format": "functional", "details": "Homo sapiens"}, "[19]": {"experiment": "HPDE-C7 pancreatic duct cell viability loss – fluorescence, HTS (AID 430)", "format": "functional, cell-based", "details": "Homo sapiens"}, "[20]": {"biological_target": "RNA-editing ligase 1, mitochondrial (Trypanosoma brucei brucei, UniProt P86926)", "sequence (P86926 whole entry)": "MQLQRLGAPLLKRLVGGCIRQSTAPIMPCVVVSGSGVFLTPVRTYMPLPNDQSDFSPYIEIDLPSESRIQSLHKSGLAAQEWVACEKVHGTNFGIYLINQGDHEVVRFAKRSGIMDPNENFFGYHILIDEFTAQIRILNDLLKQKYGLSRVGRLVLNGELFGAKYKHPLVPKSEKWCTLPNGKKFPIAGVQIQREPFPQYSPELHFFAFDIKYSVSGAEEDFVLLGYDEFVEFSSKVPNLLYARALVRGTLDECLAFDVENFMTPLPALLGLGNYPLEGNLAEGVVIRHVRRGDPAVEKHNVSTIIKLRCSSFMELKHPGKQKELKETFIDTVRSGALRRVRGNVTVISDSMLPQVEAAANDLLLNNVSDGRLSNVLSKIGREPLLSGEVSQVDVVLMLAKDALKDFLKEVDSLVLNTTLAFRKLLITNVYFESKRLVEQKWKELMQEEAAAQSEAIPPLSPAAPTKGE", "experiment": "inhibition of trypanosome RNA editing ligase – biochemical, fluorescence, Trypanosoma brucei, dose response (AID 1117295)", "format": "functional"}, "[21]": {"experiment": "Late stage results for the probe development effort to identify inhibitors of Plasmodium falciparum gametocytes: Luminescence-based cell-based high throughput dose response assay to identify inhibitors of viability of late stage Plasmodium falciparum gametocytes.", "format": "functional"}},
  "note": "Calls of active or inactive are those of the source.",
  "data": [
    {"smiles": "C[C@H](CO)N1C[C@H](C)[C@H](CN(C)Cc2ccc(C(F)(F)F)cc2)OCCCC[C@H](C)Oc2ccc(NC(=O)Cc3ccccc3)cc2C1=O", "values": [
      {"measurement": "AC50", "setting": "[1]", "result": "35.4 µM (active)"},
      {"measurement": "AC50", "setting": "[2]", "result": "49 µM (active)"},
      {"measurement": "AC50", "setting": "[3]", "result": "69.3 µM (active)"},
      {"measurement": "AC50", "setting": "[4]", "result": "25.6 µM (active)"},
      {"measurement": "AC50", "setting": "[5]", "result": "6.42 µM (active)"},
      {"measurement": "AC50", "setting": "[6]", "result": "67 µM (active)"}
    ]},
    {"smiles": "COc1ccc(CCN(C)c2c3ccccc3nc3ccccc23)cc1OC", "values": [
      {"measurement": "IC50", "setting": "[7]", "result": "4.5 µM (active)"}
    ]},
    {"smiles": "CN1CCN(C(=O)COc2ccc(N(C)S(=O)(=O)c3ccc(F)cc3)cc2)CC1", "values": [
      {"measurement": "EC50", "setting": "[8]", "result": "0.346 µM (active)"},
      {"measurement": "EC50", "setting": "[9]", "result": "> 60 µM (not active)"},
      {"measurement": "AC50", "setting": "[10]", "result": "> 30 µM (inactive)"}
    ]},
    {"smiles": "COCC(=O)Nc1ccc2c(c1)OC[C@@H](C)N(CCc1ccccc1)C[C@@H](C)[C@H](OC)CN(C)C2=O", "values": [
      {"measurement": "AC50", "setting": "[11]", "result": "> 30 µM (inactive)"}
    ]},
    {"smiles": "C[C@@H]1CN([C@H](C)CO)S(=O)(=O)c2ccc(-c3ccncc3)cc2O[C@H]1CN(C)Cc1ccc(Oc2ccccc2)cc1", "values": [
      {"measurement": "AC50", "setting": "[12]", "result": "0.841 µM (active)"},
      {"measurement": "AC50", "setting": "[13]", "result": "50 µM (active)"},
      {"measurement": "AC50", "setting": "[14]", "result": "0.583 µM (active)"},
      {"measurement": "AC50", "setting": "[15]", "result": "1.51 µM (active)"},
      {"measurement": "AC50", "setting": "[16]", "result": "0.573 µM (active)"}
    ]},
    {"smiles": "Nc1c(C(=O)NC2CCCC2)c2nc3ccccc3nc2n1CC1CCCO1", "note": "(stereo unspecified)", "values": [
      {"measurement": "IC50", "setting": "[17]", "result": "> 20 µM (inactive)"},
      {"measurement": "EC50", "setting": "[18]", "result": "13.2 µM (active)"},
      {"measurement": "EC50", "setting": "[19]", "result": "14.4 µM (active)"},
      {"measurement": "IC50", "setting": "[20]", "result": "21.1 µM (inactive)"}
    ]},
    {"smiles": "Cc1ccc(-c2nn(-c3ccccc3)cc2C(=O)Nc2nccs2)cc1", "values": [
      {"measurement": "IC50", "setting": "[21]", "result": "> 74.4 µM (inactive)"}
    ]}
  ]
}
